Our source for the AC50, IC50 and EC50 values is ChEMBL document CHEMBL1201862, “PubChem BioAssay data set” (2004).

One data set has as its system HeLa. Nature of the data set: HeLa cell cytotoxicity, dose response, cytotoxicity control for MITF activator project, CellTiter-Glo luminescence, cherry-pick samples (AID 540259). It is filed as functional, cell-based. The following applies: Homo sapiens.
A short description of data set [1]: cytotoxicity in MIN6 insulinoma cells, dose response, cytotoxicity control, cell-based, mouse insulinoma (AID 2122).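 Note: confirmatory high-throughput counterscreen run to flag cytotoxic compounds; mouse MIN-6 beta cells carrying an insulin promoter eGFP reporter.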 It is filed as functional.
A short description of data set [2]: insulin promoter down-regulators in MIN6 cells, imaging, high-content screening, mouse beta cells (AID 1628). It is filed as functional.
Data set [3] in a line: cells. It is filed as functional, cell-based.
The target of the next data set is Nonstructural protein 1 (Influenza A virus, UniProt Q194T2). It is filed as functional, Influenza A virus (A/California/07/2009(H1N1)).
Chain of Nonstructural protein 1 (Q194T2 whole entry): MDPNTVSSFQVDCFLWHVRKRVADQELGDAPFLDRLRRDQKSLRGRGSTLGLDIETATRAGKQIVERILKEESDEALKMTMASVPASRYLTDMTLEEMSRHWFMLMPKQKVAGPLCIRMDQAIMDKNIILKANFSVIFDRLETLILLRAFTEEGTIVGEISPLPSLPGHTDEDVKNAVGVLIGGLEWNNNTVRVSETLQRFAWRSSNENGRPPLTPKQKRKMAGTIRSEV
The nature of data set [4]: cells. It is filed as functional, cell-based. The source holds these as a separate data set.
The target of the next data set is Cytochrome P450 3A4 (Homo sapiens, UniProt P08684).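 Note: CYP3A4 tested as one member of a cytochrome P450 panel screen.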
Chain of Cytochrome P450 3A4 (P08684 whole entry): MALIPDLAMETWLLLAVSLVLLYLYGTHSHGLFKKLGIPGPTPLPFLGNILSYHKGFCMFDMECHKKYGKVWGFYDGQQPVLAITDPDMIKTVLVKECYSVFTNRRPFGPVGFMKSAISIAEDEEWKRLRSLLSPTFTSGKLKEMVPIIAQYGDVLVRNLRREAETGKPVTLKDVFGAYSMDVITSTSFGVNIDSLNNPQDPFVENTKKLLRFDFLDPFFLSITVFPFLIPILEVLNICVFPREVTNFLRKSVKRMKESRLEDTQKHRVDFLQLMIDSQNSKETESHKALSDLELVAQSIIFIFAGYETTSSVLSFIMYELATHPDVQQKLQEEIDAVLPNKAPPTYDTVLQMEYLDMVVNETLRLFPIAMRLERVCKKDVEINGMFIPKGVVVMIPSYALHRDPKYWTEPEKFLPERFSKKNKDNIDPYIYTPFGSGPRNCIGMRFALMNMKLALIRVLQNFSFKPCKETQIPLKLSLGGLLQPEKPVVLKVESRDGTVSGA
The subject of another data set is Escherichia coli. Put plainly: microbe, parasite or virus in culture.
The next data set deals with T1, Hexokinase HKDC1 (Homo sapiens, UniProt Q2TB90).
T1 sequence (Q2TB90 whole entry): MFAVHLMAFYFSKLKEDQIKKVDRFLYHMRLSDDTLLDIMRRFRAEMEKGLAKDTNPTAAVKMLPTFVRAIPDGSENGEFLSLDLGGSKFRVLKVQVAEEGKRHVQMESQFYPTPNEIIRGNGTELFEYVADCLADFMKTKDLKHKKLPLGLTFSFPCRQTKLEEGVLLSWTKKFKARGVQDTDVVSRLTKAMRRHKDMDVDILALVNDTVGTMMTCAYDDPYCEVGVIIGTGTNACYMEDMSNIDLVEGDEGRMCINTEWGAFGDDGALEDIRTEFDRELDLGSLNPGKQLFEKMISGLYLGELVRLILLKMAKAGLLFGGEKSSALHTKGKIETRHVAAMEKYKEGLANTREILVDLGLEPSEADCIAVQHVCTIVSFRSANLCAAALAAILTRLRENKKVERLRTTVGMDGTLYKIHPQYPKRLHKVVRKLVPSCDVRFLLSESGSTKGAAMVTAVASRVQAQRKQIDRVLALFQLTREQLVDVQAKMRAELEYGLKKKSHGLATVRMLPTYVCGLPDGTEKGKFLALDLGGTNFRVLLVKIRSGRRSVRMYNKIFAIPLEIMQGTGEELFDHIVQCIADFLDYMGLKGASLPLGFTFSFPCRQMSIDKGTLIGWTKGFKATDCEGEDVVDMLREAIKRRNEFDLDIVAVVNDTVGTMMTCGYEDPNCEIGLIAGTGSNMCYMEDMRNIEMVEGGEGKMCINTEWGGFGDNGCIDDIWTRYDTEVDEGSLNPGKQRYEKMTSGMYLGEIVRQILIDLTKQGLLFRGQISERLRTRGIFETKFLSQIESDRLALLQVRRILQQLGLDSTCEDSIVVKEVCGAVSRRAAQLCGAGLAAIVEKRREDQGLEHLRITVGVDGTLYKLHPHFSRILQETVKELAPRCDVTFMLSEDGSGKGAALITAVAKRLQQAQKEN
Put plainly: HKDC1 hexokinase inhibitors, SAR follow-up, biochemical, set 2 (AID 588355). It is filed as functional.

The target of the next data set is Hexokinase-1 (Homo sapiens, UniProt P19367). Nature of the data set: HK1 enzyme inhibition by HKDC1 hits, SAR follow-up, selectivity assay for HKDC1 inhibitor project, biochemical, set 2, resazurin fluorescence coupled readout (AID 588356). It is filed as functional.
Chain of Hexokinase-1 (P19367 whole entry): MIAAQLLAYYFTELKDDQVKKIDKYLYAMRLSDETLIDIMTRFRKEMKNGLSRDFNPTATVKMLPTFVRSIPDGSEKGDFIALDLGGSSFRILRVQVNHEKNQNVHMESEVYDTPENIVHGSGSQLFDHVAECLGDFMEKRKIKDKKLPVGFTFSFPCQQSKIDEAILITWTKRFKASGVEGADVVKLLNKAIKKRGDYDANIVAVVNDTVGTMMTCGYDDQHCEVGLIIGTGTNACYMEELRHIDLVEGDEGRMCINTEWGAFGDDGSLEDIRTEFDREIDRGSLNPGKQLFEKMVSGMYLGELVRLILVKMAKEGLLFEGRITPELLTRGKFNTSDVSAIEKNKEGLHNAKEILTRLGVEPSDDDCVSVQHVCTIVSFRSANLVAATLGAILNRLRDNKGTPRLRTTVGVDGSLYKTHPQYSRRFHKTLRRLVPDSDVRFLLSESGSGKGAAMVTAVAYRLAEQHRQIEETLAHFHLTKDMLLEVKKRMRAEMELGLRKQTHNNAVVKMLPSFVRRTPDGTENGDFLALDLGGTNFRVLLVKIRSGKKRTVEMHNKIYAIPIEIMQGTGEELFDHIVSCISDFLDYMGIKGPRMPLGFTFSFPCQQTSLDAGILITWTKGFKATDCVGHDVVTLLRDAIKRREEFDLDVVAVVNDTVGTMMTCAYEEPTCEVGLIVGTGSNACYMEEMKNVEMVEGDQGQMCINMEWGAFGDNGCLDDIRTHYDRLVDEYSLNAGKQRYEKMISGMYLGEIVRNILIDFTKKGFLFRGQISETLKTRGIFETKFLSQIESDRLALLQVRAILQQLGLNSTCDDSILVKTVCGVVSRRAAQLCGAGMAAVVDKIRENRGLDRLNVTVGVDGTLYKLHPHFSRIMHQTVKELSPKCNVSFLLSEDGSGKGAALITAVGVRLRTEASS
The next data set concerns the target SUMO E1/E2 (Homo sapiens, UniProt P63279+Q9UBE0+Q9UBT2). Put plainly: SAR analysis of SUMOylation using HTRF in an in-Vitro dose response assay. [Related pubchem assays (depositor defined):AID2006, AID2011, AID2018, AID2069, AID2658]. It is filed as functional.
Data set [5] deals with Potassium voltage-gated channel subfamily KQT member 2 (Rattus norvegicus, UniProt O88943). Put plainly: KCNQ2 channel activators, analog series, SAR follow-up, automated patch clamp, KCNQ2-CHO cells (AID 493113). It is filed as functional.
Chain of Potassium voltage-gated channel subfamily KQT member 2 (O88943 whole entry): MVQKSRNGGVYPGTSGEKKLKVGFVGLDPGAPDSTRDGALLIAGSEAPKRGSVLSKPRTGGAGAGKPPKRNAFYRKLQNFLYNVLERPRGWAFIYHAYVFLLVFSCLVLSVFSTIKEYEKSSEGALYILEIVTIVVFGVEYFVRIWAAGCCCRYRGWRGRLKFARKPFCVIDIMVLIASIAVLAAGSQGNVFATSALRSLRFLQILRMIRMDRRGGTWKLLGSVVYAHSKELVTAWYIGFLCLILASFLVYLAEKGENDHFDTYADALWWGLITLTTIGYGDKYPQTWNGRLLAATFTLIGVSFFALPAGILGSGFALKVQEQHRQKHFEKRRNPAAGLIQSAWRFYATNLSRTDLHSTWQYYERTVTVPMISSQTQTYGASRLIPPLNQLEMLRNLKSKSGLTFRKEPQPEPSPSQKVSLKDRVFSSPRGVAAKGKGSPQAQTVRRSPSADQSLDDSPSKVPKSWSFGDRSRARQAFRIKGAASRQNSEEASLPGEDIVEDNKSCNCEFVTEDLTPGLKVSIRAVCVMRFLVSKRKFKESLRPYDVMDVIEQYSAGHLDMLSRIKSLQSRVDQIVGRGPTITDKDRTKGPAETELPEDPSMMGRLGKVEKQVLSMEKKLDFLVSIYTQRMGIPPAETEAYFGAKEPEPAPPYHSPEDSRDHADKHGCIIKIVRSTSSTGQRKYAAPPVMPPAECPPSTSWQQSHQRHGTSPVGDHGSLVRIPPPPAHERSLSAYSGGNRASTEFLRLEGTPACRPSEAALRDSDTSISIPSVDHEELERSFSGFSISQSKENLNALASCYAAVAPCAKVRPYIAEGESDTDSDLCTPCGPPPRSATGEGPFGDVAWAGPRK
The test system of another data set is Streptococcus. Put plainly: Group A Streptococcus viability loss, dose response, counter-screen for streptokinase expression inhibitor project, luminescence, BacTiterGlo (AID 1915).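 Note: potency for reduction of bacterial viability or growth.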 It is filed as functional, organism-based.
Data set [6] in a line: C. albicans growth with fluconazole, confirmation, fluorescence, retest (AID 2467). It is filed as functional, cell-based.
A short description of data set [7]: NIH-3T3 fibroblast cytotoxicity, dose response, cytotoxicity control, cell-based, fluorescence, Alamar Blue, secondary assay (AID 2327).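 Note: NIH-3T3 mouse fibroblasts cultured with fluconazole at 8 µg/mL.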 It is filed as functional.
For data set [8], the system named is Streptococcus sp. 'group A'. Put plainly: growth inhibition of control SK(-) GAS strain, dose response, counter-screen for streptokinase expression inhibitor project, luminescence, kanamycin, BacTiterGlo, confirmation (AID 1900). It is filed as functional, organism-based.
In the next data set the target is T2, Streptokinase A (Streptococcus pyogenes serotype M1, UniProt P10520).
T2 sequence (P10520 whole entry): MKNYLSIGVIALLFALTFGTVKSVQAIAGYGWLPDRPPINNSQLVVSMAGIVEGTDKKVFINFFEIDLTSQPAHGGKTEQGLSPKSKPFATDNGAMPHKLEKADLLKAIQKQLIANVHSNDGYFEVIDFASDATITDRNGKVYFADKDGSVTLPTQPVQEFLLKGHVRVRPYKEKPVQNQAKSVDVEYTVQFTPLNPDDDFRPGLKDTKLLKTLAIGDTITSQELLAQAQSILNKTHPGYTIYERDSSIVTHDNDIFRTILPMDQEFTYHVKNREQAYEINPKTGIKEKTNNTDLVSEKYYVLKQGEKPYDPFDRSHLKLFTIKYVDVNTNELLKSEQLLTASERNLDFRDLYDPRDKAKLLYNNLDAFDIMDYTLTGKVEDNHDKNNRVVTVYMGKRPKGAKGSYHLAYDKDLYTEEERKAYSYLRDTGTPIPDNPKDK
Nature of the data set: S. pyogenes streptokinase expression inhibitors, potency, dose response, plasminogen activation absorbance, OD405 (AID 1914).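 Note: secreted streptokinase activity via plasminogen activation per viability signal from cell pellet.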 It is filed as functional, Streptococcus pyogenes M1 GAS.

Active and inactive are the calls of the source.

Chain of SUMO E1/E2 (Q9UBE0 whole entry): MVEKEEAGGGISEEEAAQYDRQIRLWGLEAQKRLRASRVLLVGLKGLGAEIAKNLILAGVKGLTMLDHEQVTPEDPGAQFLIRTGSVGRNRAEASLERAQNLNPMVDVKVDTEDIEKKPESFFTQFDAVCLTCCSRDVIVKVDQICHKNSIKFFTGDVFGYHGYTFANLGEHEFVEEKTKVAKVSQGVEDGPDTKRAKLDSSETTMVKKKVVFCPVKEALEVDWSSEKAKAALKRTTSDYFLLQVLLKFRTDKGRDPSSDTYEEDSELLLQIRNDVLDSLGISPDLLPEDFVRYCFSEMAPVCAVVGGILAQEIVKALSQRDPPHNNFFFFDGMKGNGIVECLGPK
Chain of SUMO E1/E2 (Q9UBT2 whole entry): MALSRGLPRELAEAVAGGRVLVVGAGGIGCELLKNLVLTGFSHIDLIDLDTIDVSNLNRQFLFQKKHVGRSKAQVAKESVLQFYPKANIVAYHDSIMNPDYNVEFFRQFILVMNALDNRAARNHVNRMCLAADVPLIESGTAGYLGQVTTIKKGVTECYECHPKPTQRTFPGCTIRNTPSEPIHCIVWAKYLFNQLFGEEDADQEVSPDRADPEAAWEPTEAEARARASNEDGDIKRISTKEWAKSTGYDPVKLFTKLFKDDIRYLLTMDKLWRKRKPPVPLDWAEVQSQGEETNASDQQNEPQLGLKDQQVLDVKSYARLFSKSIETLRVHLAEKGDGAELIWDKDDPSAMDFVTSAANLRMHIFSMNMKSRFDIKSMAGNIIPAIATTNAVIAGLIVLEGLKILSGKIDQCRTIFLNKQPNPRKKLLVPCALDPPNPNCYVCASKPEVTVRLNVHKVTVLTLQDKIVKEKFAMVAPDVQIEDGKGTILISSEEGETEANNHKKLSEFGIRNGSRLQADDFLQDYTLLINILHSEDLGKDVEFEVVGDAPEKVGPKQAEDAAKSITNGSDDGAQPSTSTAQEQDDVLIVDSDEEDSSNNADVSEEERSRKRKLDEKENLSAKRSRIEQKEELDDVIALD
Chain of SUMO E1/E2 (P63279 whole entry): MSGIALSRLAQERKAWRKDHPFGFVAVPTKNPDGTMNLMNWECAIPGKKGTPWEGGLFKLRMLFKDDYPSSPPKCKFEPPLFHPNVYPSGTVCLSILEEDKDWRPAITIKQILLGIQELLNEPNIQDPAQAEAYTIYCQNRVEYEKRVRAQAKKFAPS

Turning to `Cc1cc(C)c2nc(NCc3ccccc3O)sc2c1`, the concentration at half-maximal activity (AC50) in the data set on HeLa is 42.4 µM (active).

On to `CC1(C)CC(/C=C/c2ccccc2)=Nc2ccccc2N1`, for which the AC50 in the data set with HeLa is 37.3 µM (active).

On to `Cc1cc(NC(c2cccnc2)c2ccc3cccnc3c2O)no1` (configuration not stated), for which the IC50 in data set [1] is 3.65 µM (active); in data set [2], 3.53 µM (active); at Nonstructural protein 1, 7.09 µM (active). Further, the EC50 in “cells [3]” was 11.9 µM (active); in “cells [4]”, > 350 µM (not active).

Regarding `O=C(c1ccccc1)c1ccc(OCC(O)CN2CCN(Cc3ccccc3)CC2)cc1` (configuration not stated), the AC50 result at Cytochrome P450 3A4 was “inconclusive”.

With `COC(=O)CN1C(=O)N/C(=C/c2ccccc2OC)C1=O`, the AC50 in the data set on Escherichia coli is 60.7 µM (active).

As for `COc1ccc2c(c1)C(NC(C)=O)C(=O)N2CCN1CCOCC1` (configuration not stated), the IC50 on Hexokinase HKDC1 is 8.31 µM (active); at Hexokinase-1 it was > 80 µM (inactive); on SUMO E1/E2 it was 9.45 µM (active).

For `Cc1cccc(NC(=O)C2CC3CCC2C3)c1C` (configuration not stated), in data set [5], the EC50 was 1 µM (active).

Turning to `Cc1ccc(NC(=O)C2CC3CCC2C3)cc1` (configuration not stated), in data set [5], the EC50 is 0.75 µM (active).

Consider `COc1cc2c(cc1OC)-c1cc(Nc3ncn[nH]3)nc(=O)n1CC2`, for which the IC50 on Hexokinase HKDC1 and at Hexokinase-1 was > 80 µM (inactive) in each case.

Take `C/C(=C\C(=O)OCCCCCCCCC(=O)O)C[C@@H]1OC[C@H](C[C@@H]2O[C@H]2[C@@H](C)[C@H](C)O)[C@@H](O)[C@H]1O` [MUPIROCIN]: the concentration for a half-maximal effect (EC50) was < 0.06 µM (active) with Streptococcus; > 38 µM (not active) in [6]; > 150 µM (inactive) in data set [7]; < 0.06 µM (active) in [8]; 0.423 µM (active) on Streptokinase A. The concentration at half-maximal activity (AC50) in the data set with Escherichia coli is 4.99 µM (active).
